ChEMBL document CHEMBL1151820, “Antagonists of the P2X(7) receptor. From lead identification to drug development” (J Med Chem, 2009)

Key:
[1] = Half life in ip dosed rat; format: ADME, organism-based; settings: in vivo
Rattus norvegicus [2] = assay: Analgesic activity in po dosed rat model of joint pain assessed as inhibition of FCA-induced weight bearing capacity administered twice daily for 5 days; format: functional; settings: 120 h
Rattus norvegicus [3] = assay: Antiinflammatory activity in po dosed rat acute inflammatory pain model assessed as inhibition of FCA-induced weight bearing capacity; format: functional
P2X purinoceptor 7 [4] = target: T1, P2X purinoceptor 7 (Homo sapiens, UniProt Q99572); assay: Antagonist activity at P2X7 receptor in human THP1 cells assessed as effect on BzATP-induced Yo-Pro uptake; format: functional, cell-based, THP-1
T1 sequence (Q99572 whole entry): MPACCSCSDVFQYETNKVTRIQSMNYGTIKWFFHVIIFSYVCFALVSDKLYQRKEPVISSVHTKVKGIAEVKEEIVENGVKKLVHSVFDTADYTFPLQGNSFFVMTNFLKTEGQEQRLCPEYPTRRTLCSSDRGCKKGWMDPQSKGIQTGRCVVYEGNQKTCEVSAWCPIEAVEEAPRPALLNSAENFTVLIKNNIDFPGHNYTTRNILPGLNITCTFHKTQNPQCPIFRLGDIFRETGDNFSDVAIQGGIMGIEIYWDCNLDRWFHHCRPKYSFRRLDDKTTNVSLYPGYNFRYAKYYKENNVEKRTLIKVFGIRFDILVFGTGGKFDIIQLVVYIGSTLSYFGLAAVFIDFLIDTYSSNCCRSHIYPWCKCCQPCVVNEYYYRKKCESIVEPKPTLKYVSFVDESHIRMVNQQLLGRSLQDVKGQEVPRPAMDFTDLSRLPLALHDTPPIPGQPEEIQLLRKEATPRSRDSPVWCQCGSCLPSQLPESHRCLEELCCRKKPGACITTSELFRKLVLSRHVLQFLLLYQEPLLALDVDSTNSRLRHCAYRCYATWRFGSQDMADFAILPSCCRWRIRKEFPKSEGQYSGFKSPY

P2X purinoceptor 7 [5] = target: T1, P2X purinoceptor 7; assay: Antagonist activity at human P2X7 receptor expressed in HEK293 cells assessed as inhibition of BzATP-induced calcium influx; format: functional, cell-based
[6] = target: T2, P2X purinoceptor 7 (Homo sapiens) (UniProt Q99572); assay: Inhibition of human P2X7 receptor in human PBMC assessed as inhibition of BzATP-induced IL1-beta release at 0.3 uM
T2 sequence (whole entry): T1 sequence (Q99572 whole entry)

P2X purinoceptor 7 [7] = target: T3, P2X purinoceptor 7 (Rattus norvegicus, UniProt Q64663); assay: Activity at rat P2X7 receptor expressed in HEK cells assessed as effect on BzATP-induced ethidium uptake; format: cell-based, HEK293
T3 sequence (Q64663 whole entry): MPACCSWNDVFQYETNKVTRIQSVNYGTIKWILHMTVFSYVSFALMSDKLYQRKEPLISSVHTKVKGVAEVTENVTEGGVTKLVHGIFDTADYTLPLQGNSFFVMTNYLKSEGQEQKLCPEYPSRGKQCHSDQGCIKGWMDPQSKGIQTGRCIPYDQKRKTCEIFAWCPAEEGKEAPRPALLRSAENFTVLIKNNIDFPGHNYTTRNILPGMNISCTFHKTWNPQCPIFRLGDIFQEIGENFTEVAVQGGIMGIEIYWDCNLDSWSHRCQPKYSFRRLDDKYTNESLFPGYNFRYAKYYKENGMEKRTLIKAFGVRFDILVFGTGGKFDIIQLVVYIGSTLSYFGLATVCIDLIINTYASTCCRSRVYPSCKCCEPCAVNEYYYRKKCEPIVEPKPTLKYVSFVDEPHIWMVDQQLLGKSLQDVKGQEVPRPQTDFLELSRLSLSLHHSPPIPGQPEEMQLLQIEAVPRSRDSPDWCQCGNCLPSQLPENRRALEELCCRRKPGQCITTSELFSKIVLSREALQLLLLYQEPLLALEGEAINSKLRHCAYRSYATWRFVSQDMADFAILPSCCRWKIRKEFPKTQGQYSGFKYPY

P2X purinoceptor 7 [8] = target: T1, P2X purinoceptor 7; assay: Antagonist activity at P2X7 receptor in human THP1 cells assessed as inhibition of BzATP-induced ethidium uptake; format: functional, cell-based, THP-1
[9] = Metabolic stability in rat hepatocytes assessed as intrinsic clearance assessed per million cells; format: ADME, cell-based, Liver, Hepatocyte
[10] = Plasma clearance in rat; format: ADME, organism-based
[11] = Volume of distribution at steady state in rat; format: ADME, organism-based; settings: in vivo, read-out: Vdss
[12] = Half life in rat; format: ADME, organism-based; settings: in vivo
Mus musculus = assay: In vivo receptor activity at P2X7 receptor in mouse model assessed as ATP-induced IL1-beta release; format: functional
P2X purinoceptor 7 [13] = target: T1, P2X purinoceptor 7; assay: Antagonist activity at human P2X7 receptor expressed in human U373 cells assessed as inhibition of BzATP-induced Yo-Pro uptake; format: functional, cell-based, U-373MG ATCC
[14] = Metabolic stability in human liver microsomes assessed as half life; format: ADME, Microsome
[15] = Oral bioavailability in rat; format: ADME, organism-based; settings: in vivo
[16] = Protein binding in rat plasma; format: ADME, cell-free; settings: read-out: PB (converted)

Clc1cccc(-c2nnnn2Cc2cccnc2)c1Cl
half-life [1]: 1 h

CN1C(=O)CCC1C(=O)NCc1cccc(C(F)(F)F)c1Cl (stereo unspecified)
ED50 (Rattus norvegicus [2]): < 20 mg/kg
ED50 (Rattus norvegicus [3]): < 20 mg/kg

O=C(NCC1(O)CCCCCC1)c1cc(-c2cc[nH]n2)ccc1Cl
IC50 (P2X purinoceptor 7 [4]): 200 nM

CN([C@@H](Cc1ccc(OS(=O)(=O)c2cccc3cnccc23)cc1)C(=O)N1CCN(c2ccc(F)cc2)CC1)S(=O)(=O)c1cccc2cnccc12
IC50 (P2X purinoceptor 7 [5]): 1.26 nM

CN([C@@H](Cc1ccc(OS(=O)(=O)c2cccc3cnccc23)cc1)C(=O)N1CCC(Cc2ccccc2)CC1)S(=O)(=O)c1cccc2cnccc12
IC50 (P2X purinoceptor 7 [5]): 63.1 nM

CN1C(=O)CCC1C(=O)NCc1ccc(Cl)cc1Cl (stereo unspecified)
ED50 (Rattus norvegicus [2]): < 20 mg/kg
ED50 (Rattus norvegicus [3]): < 20 mg/kg

CC(C)(C)OC(=O)NCC(=O)N1CCc2c(ncnc2NCC(O)C23CC4CC(CC(C4)C2)C3)C1 (stereo unspecified)
inhibition [6]: > 75%

Clc1cccc(-n2ncnc2NCc2cccnc2N2CCCC2)c1Cl
IC50 (P2X purinoceptor 7 [7]): 25.1 nM

Cc1cc(-c2ccc(Cl)c(C(=O)NCC3(O)CCCCCC3)c2)nn1CC(=O)NCCN(C)C
IC50 (P2X purinoceptor 7 [4]): 3.16 nM

O=C(CC12CC3CC(CC(C3)C1)C2)Nc1ccccc1
Kb (P2X purinoceptor 7 [8]; read-out: pA2 (converted)): 39.8 nM
hepatocyte CLint [9]: 5 µL/min/1e6 cells
clearance [10]: 47 mL/min/kg
Vd [11]: 2 L/kg
half-life [12]: 1 h

O=C(NCC12CC3CC(CC(C3)C1)C2)c1ccccc1Cl
hepatocyte CLint [9]: > 100 µL/min/1e6 cells

O=C(NCC1(O)CCCCCC1)c1cc(-n2ncc(=O)[nH]c2=O)ccc1Cl
IC50 (P2X purinoceptor 7 [8]): 100 nM
ED50 (Mus musculus): 2 mg/kg

C=C1C2(C(=O)NNc3ccccc3)CCC(C2)C1(C)C (stereo unspecified)
IC50 (P2X purinoceptor 7 [8]): 50.1 nM
IC50 (P2X purinoceptor 7 [7]): 50.1 nM

Cc1cccc([C@H]2NC(NCc3cccc(F)c3)=N[C@H]2c2cccc(C)c2)c1
IC50 (P2X purinoceptor 7 [13]): 126 nM

Clc1ccc(CCC2=N[C@H](c3ccccc3)[C@H](c3ccccc3)N2)cc1
IC50 (P2X purinoceptor 7 [13]): > 1000 nM

Clc1ccccc1CCC1=N[C@@H](c2ccccc2)[C@@H](c2ccccc2)N1
IC50 (P2X purinoceptor 7 [13]): 63.1 nM

O=C(Cc1ccc(C(F)(F)F)c(F)c1)Nc1c(Cl)ccc2c(=O)n(CCO)ccc12
IC50 (P2X purinoceptor 7 [8]): 6.31 nM
half-life [14]: 3.7 h
bioavailability [15]: > 75%

COc1ccc(CCC2=N[C@H](c3ccccc3)[C@H](c3ccccc3)N2)cc1
IC50 (P2X purinoceptor 7 [13]): > 3160 nM

Cc1ccccc1Nc1ncnn1-c1cccc(Cl)c1Cl
IC50 (P2X purinoceptor 7 [8]): 20 nM
IC50 (P2X purinoceptor 7 [7]): 251 nM

Cc1ccc(C(=O)N2CC3CNCC(C2)O3)cc1NC(=O)CC12CC3CC(CC(C3)C1)C2
fraction unbound [16]: 0.34

Cc1ccc(-c2ccc(Cl)c(C(=O)NCC3(O)CCCC(C)(C)C3)c2)nc1 (stereo unspecified)
IC50 (P2X purinoceptor 7 [4]): 10 nM

Clc1cccc(CCC2=N[C@H](c3ccccc3)[C@H](c3ccccc3)N2)c1
IC50 (P2X purinoceptor 7 [13]): 126 nM

Fc1ccccc1CC1=N[C@H](c2ccccc2)[C@H](c2ccccc2)N1
IC50 (P2X purinoceptor 7 [13]): 631 nM

O=C(CNS(=O)(=O)c1cccc2cnccc12)N1CCN(Cc2ccccc2)CC1
IC50 (P2X purinoceptor 7 [5]): 31.6 nM

CN([C@@H](Cc1ccc(OS(=O)(=O)c2cccc3cnccc23)cc1)C(=O)N1CCN(c2cccc(Cl)c2)CC1)S(=O)(=O)c1cccc2cnccc12
IC50 (P2X purinoceptor 7 [5]): 12.6 nM
